Patent EP0888303B1, “SYNTHETIC DERIVATIVES OF RAPAMYCIN AS MULTIMERIZING AGENTS FOR CHIMERIC PROTEINS WITH IMMUNOPHILIN-DERIVED DOMAINS” (ARIAD Pharmaceuticals, Inc, priority 1996, dated 1997)
pEC50, pIC50: −log10 of the molar value. Several values for one entry are separate records, joined by “and”; a condition that tells them apart may be missing. Identical values can stand only once. Like-named read-outs stand apart in the source and are kept apart here.

Assays:
wild-type human FKBP12 = wild-type human FKBP12 (Homo sapiens, UniProt P62942); test: Competitive Binding FP Assay
Chain of wild-type human FKBP12 (P62942 2-108): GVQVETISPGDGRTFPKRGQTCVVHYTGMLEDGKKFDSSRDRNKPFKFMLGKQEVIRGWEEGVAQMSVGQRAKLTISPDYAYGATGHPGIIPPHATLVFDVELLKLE
Description: (§1) Affinities of bumped synthetic ligands for FKBP were determined using a competitive assay based on fluorescence polarization (FP). […] The assay yields IC50 values that are related to the affinity of the competitive ligand for the protein.
(§2) All binding assay procedures were performed at room temperature. Serial dilutions of each protein were prepared in 50 mM potassium phosphate pH 7.8/150 mM NaCl/ 100µg/ml bovine gamma globulin ("FP buffer": prepared using only low-fluorescence reagents from Panvera), and 100 µl volumes transferred to wells of a Dynatech micro-fluor black 96-well fluorescence plate. 100 µl of 10 nM 4 in FP buffer plus 2% ethanol (prepared from an ethanol stock of the probe) was then added to each well with mixing. Duplicate control wells contained FP buffer instead of FKBP (for 0% probe binding) or 10 µM wild-type FKBP (for 100% binding).
(§3) The plates were stored covered in the dark for approximately 30 min to permit equilibration and then the fluorescence polarization of the sample in each well was read on a Jolley FPM-2 FP plate reader (Jolley Consulting and Research, Inc., Grayslake, IL) in accordance with the manufacturer's recommendations. Polarization (mP units) for each protein concentration was plotted (y axis) vs. final concentration of FKBP (x axis). Concentrations were determined by OD280 measurements. Arbitrary units were used for non-quantitated proteins.
Serial 10-fold dilutions of each synthetic ligand were prepared in 100% ethanol in glass vials and stored on ice. All other manipulations were performed at room temperature. […] Finally, a probe solution was prepared containing 10 nM 4 in 0.1% ethanol/FP buffer, and 100 µl added to each well with mixing. Duplicate control wells contained ethanol instead of FKBP ligand (for 100% probe binding) or ethanol instead of FKBP ligand and FP buffer instead of FKBP (0% binding).
(§4) The plates were stored covered in the dark for approximately 30 min to permit equilibration and then the fluorescence polarization of the sample in each well read on a Jolley FPM-2 FP plate reader (Jolley Consulting and Research, Inc., Grayslake, IL) in accordance with the manufacturer's recommendations. The mean polarization (mP units) for each competitor concentration, in some cases converted to % total binding by reference to the control values, was plotted (y axis) vs. log molar final concentration of competitor (x axis). […] For incomplete curves the IC50 was determined by interpolation.

mutant (F36V) FKBP = test: Competitive Binding FP Assay; design: species or system human
Description: as §1, §2, §3
(§5) Serial 10-fold dilutions of each synthetic ligand were prepared in 100% ethanol in glass vials and stored on ice. All other manipulations were performed at room temperature. […] 2.0 µl samples of the synthetic ligands were then transferred in duplicate to the wells with mixing. Finally, a probe solution was prepared containing 10 nM 4 in 0.1% ethanol/FP buffer, and 100 µl added to each well with mixing. Duplicate control wells contained ethanol instead of FKBP ligand (for 100% probe binding) or ethanol instead of FKBP ligand and FP buffer instead of FKBP (0% binding).
as §4

F36L mutant FKBP = F36L mutant FKBP (Homo sapiens, UniProt P62942, F37L); test: Competitive Binding FP Assay
Chain of F36L mutant FKBP (P62942 2-108 F37L): as the sequence (P62942 2-108) above, with F36L counted along it
Description: as §1, §2, §3, §5, §4

F36I mutant FKBP = test: Competitive Binding FP Assay; design: species or system human; settings: Synthetic Monomers table; normalized to value of FK506 run in the same experiment
Description: as §1, §2, §3, §5, §4

F36M mutant FKBP = test: Competitive Binding FP Assay; design: species or system human; settings: Synthetic Monomers table; normalized to value of FK506 run in the same experiment
Description: as §1, §2, §3, §5, §4

F36A mutant FKBP = test: Competitive Binding FP Assay; design: species or system human; settings: Synthetic Monomers table; normalized to value of FK506 run in the same experiment
Description: as §1, §2, §3, §5, §4

[1] = system: FKBP-containing fusion proteins (wt FKBP); test: Transcription Assay, activation of reporter gene transcription (wt; stable); type: cell-based, human; settings: at 1000 nM; each value an individual experiment
Description: The ability of the multimerizing agents to multimerize chimeric proteins may be measured cell-based assays by measuring the occurrence of an event triggered by such multimerization. For instance, one may use cells containing and capable of expressing DNAs encoding chimeric proteins comprising one or more immunophilin-derived ligand binding domains and one or more effector domains capable, upon multimerization, of actuating a biological response. We prefer to use cells which further contain a reporter gene under the transcriptional control of a regulatory element (i.e., promoter) which is responsive to the multimerization of the chimeric proteins (at least one of which contains an FKBP domain). […] The cells are grown or maintained in culture. A multimerizing agent is added to the culture medium and after a suitable incubation period (to permit gene expression and secretion, e.g. several hours or overnight) the presence of the reporter gene product is measured. Positive results, i.e., multimerization, correlates with transcription of the reporter gene as observed by the appearance of the reporter gene product. The reporter gene product may be a conveniently detectable protein (e.g. by ELISA) or may catalyze the production of a conveniently detectable product (e.g. colored).
Dimerizers may also be assayed for their ability to activate transcription of a reporter gene linked to a regulatory sequence responsive to the dimerization of FKBP-containing fusion proteins containing one or more transcription regulatory domains (e.g. DNA binding domains and transcription activation domains). We have made use of such as system as follows. […] The reporter plasmid (G5IL2-SEAP) used in these assays contains a gene that encodes for secreted alkaline phosphatase (SEAP) under the control of the minimal IL2 promoter and 5XGAL4 binding sites placed upstream of the promoter. In all cases, a plasmid expressing growth hormone was used as an internal control to moniter transfection efficiency. Approximately, 16 hrs after transfection, the media was removed and the cells were washed twice with PBS. Cells were refed with 2.5 ml of DMEM containing 10% serum and two hours later, synthetic dimerizers were added directly to the medium at appropriate concentrations in 5ul of ethanol carrier solution. Approximetely, 24 hrs after the addition of the drugs, 100 ul of the media was removed and assayed for SEAP activity and another 100 ul of the media was used to assay for growth hormone activity (to normalize for transfection efficiency).

[2] = system: FAS-FKBP fusion (wt FKBP) in HT1080 cells; type: cell-based, human; settings: for Fas killing (wt, stable): % @ 1000: human, ht1080 cells, 1 µM
Description: In this case, one uses cells which constituively express a detectable product. The cells also contain and are capable of expressing DNAs encoding chimeric proteins comprising one or more immunophilin-derived ligand binding domains and one or more effector domains, such as the intracellular domain of FAS, capable, upon multimerization, of triggering cell death. […] The cells are maintainined or cultured in a culture medium permitting cell growth or continued viability. The cells or medium are assayed for the presence of the constitutive cellular product, and a base-line level of reporter is thus established. One may use cells engineered for constituive production of hGH or any other conveniently detectable product to serve as the reporter. The compound to be tested is addded to the medium, the cells are incubated, and the cells or medium is tested for the presence of reporter at one or more time points. Decrease in reporter production indicates cell death, an indirect measure of multimerization of the fusion proteins.
The ability of a dimerizer to activate the Fas signal transduction pathway and trigger cell death in cells engineered to express a FAS-FKBP fusion can be tested in cells appropriately transduced by retroviral vectors to express the desired fusion protein. […] The retroviral supernatant is used to transduce target cells. To screen compounds and constructs, we used the human fibrosarcoma line HT1080. Two to three days after transfection, cells are plated into G418 and the resistant population or clones are isolated by standard means. To monitor dimerizer-induced apoptosis, cells are plated into a 96-well plate at either 5000 or 10,000 cells/well in MEM medium containing 10% fetal bovine serum. The next day, medium removed and replaced with freshmedium containing the test compound at various dilutions, in triplicate. In some cases, Actinomycin D is included at 50 ng/ml. Untreated wells are always included. The next day, medium is removed and replaced with medium containing 10% Alamar Blue viability indicator, which changes absorbance properties as a function of reducing agent released into the medium by cell metabolism. Alternatively, cells are counted. Optical density at the appropriate wavelength is measured using a platereader spectroscope.

[3] = system: cells expressing a construct containing p75 followed by 2 mutant FKBPs followed by a Fas effector domain; test: Cell death monitored by Alamar Blue or hGH levels in hGH-expressing clones; type: cell-based
Description: As an alternative method for monitoring cell death, cells expressing a construct containing p75 followed by 2 mutant FKBPs followed by a Fas effector domain were transfected using an episomal vector, pCEP4 (Invitrogen Corp.) into which we had inserted DNA encoding hGH under control of a CMV promoter. The vector confers resistance to hygromycin. […] Monitoring Alamar Blue or hGH levels led to very similar EC50 curves for cell viability (measured as a % of control value) plotted against dimerizer concentration. In both cases the concentration of dimerizer corresponding to 50% of control was less than 1 nM.

[4] = Synthetic Monomers table, normalized to value of FK506 run in the same experiment, read-out: wild-type IC50
[5] = Synthetic Monomers table, normalized to value of FK506 run in the same experiment, read-out: F36V IC50
[6] = Synthetic Monomers table, normalized to value of FK506 run in the same experiment, read-out: F36L IC50
[7] = read-out: FKBPwt binding affinity IC50
[8] = Synthetic Multimerizers table, monomer value in brackets, mean of duplicates, normalized to FK506 = […] (substituted phenyl/lower aliphatic series: to AP1903 values), read-out: FKBPF36V binding affinity IC50

Molecule: COc1ccc(CCC(OC(=O)C2CCCCN2C(=O)C(c2ccccc2)C2CCCC2)c2cccc(OCC(=O)O)c2)cc1OC (mixture of isomers) [AP1778]
- pIC50 (wild-type human FKBP12; [4]): 4.80
- pIC50 (mutant (F36V) FKBP; [5]): 7.66
- pIC50 (F36L mutant FKBP; [6]): 7.49

Molecule: COc1ccc(CCC(OC(=O)C2CCCCN2C(=O)C(c2ccccc2)C(C)C)c2cccc(OCC(=O)O)c2)cc1OC (mixture of isomers) [AP1781]
- pIC50 (wild-type human FKBP12; [4]): 4.41
- pIC50 (mutant (F36V) FKBP; [5]): 7.59
- pIC50 (F36L mutant FKBP; [6]): 7.48

Molecule: COc1ccc(CCC(OC(=O)C2CCCCN2C(=O)C(Cc2ccccc2)c2ccccc2)c2cccc(OCC(=O)O)c2)cc1OC (mixture of isomers) [AP1831]
- pIC50 (wild-type human FKBP12; [4]): < 5.00
- pIC50 (mutant (F36V) FKBP; [5]): 6.82
- pIC50 (F36L mutant FKBP; [6]): 6.66

Molecule: CCC(C)(C)C(=O)C(=O)N1CCCC[C@H]1C(=O)O[C@H](CCc1ccc(OC)c(OC)c1)c1cccc(OCC(=O)O)c1 [AP1497]
- pIC50 (wild-type human FKBP12; [4]): 7.07
- pIC50 (mutant (F36V) FKBP; [5]): 7.36
- pIC50 (F36L mutant FKBP; [6]): 7.33

Molecule: CC[C@@H](C(=O)N1CCCC[C@H]1C(=O)O[C@H](CCc1ccc(OC)c(OC)c1)c1cccc(OCC(=O)O)c1)c1ccccc1 [AP1769]
- pIC50 (wild-type human FKBP12; [4]): 3.66
- pIC50 (mutant (F36V) FKBP; [5]): 6.88
- pIC50 (F36L mutant FKBP; [6]): 6.62
- pIC50 (F36I mutant FKBP): 6.46
- pIC50 (F36M mutant FKBP): 6.71
- pIC50 (F36A mutant FKBP): 6.34

Molecule: COc1ccc(CC[C@@H](OC(=O)[C@@H]2CCCCN2C(=O)Cc2ccccc2)c2cccc(OCC(=O)O)c2)cc1OC [AP1780]
- pIC50 (wild-type human FKBP12; [4]): 4.67
- pIC50 (mutant (F36V) FKBP; [5]): 5.82
- pIC50 (F36L mutant FKBP; read-out: F36L IC50): 5.45
- pIC50 (F36I mutant FKBP): 5.69
- pIC50 (F36M mutant FKBP): 5.59
- pIC50 (F36A mutant FKBP): 5.08

Molecule: COc1ccc(CC[C@@H](OC(=O)[C@@H]2CCCCN2C(=O)[C@H](C)c2ccccc2)c2cccc(OCC(=O)O)c2)cc1OC [AP1782]
- pIC50 (wild-type human FKBP12; [4]): < 4.00
- pIC50 (mutant (F36V) FKBP; [5]): 6.23
- pIC50 (F36L mutant FKBP; [6]): 5.85
- pIC50 (F36I mutant FKBP): 5.98
- pIC50 (F36M mutant FKBP): 6.03
- pIC50 (F36A mutant FKBP): 5.84

Molecule: COc1ccc(CC[C@@H](OC(=O)[C@@H]2CCCCN2C(=O)[C@@H](C)c2ccccc2)c2cccc(OCC(=O)O)c2)cc1OC [AP1784]
- pIC50 (wild-type human FKBP12; [4]): 4.80
- pIC50 (mutant (F36V) FKBP; [5]): 7.03
- pIC50 (F36L mutant FKBP; [6]): 7.04
- pIC50 (F36I mutant FKBP): 6.93
- pIC50 (F36M mutant FKBP): 6.38
- pIC50 (F36A mutant FKBP): 6.77

Molecule: CCC(C(=O)N1CCCC[C@H]1C(=O)O[C@H](CCc1ccc(OC)c(OC)c1)c1cccc(OCC(=O)O)c1)c1ccc2c(c1)OCO2 (some centres unmarked) [AP1839]
- pIC50 (wild-type human FKBP12; [4]): 4.87
- pIC50 (wild-type human FKBP12; [7]): 4.78
- pIC50 (mutant (F36V) FKBP; [5]): 8.05
- pIC50 (mutant (F36V) FKBP; [8]): 8.27
- pIC50 (F36L mutant FKBP; read-out: F36L IC50): 7.24
- pIC50 (F36I mutant FKBP): 7.59
- pIC50 (F36M mutant FKBP): 7.72
- pIC50 (F36A mutant FKBP): 7.49

Molecule: CC[C@H](C(=O)N1CCCC[C@H]1C(=O)O[C@H](CCc1ccc(OC)c(OC)c1)c1cccc(OCC(=O)O)c1)c1cc(OC)c(OC)c(OC)c1 [AP1867]
- pIC50 (wild-type human FKBP12; [7]): 5.71
- pIC50 (mutant (F36V) FKBP; [8]): 8.74
- pIC50 (F36L mutant FKBP; read-out: FKBPF36L binding affinity IC50): 8.21

Molecule: CCC(C(=O)N1CCCC[C@H]1C(=O)O[C@H](CCc1ccc(OC)c(OC)c1)c1cccc(OCC(=O)NCCNC(=O)COc2cccc([C@@H](CCc3ccc(OC)c(OC)c3)OC(=O)[C@@H]3CCCCN3C(=O)C(CC)c3ccc4c(c3)OCO4)c2)c1)c1ccc2c(c1)OCO2 (some centres unmarked) [AP1885]
- pIC50 (mutant (F36V) FKBP; [8]): 7.23
- activation of transcription (wt; stable): % @ 1000 [1]: 0% @ 1000
- Fas killing (wt, stable): % @ 1000 [2]: 0% @ 1000

Molecule: CC[C@H](C(=O)N1CCCC[C@H]1C(=O)O[C@H](CCc1ccc(OC)c(OC)c1)c1cccc(OCC(=O)NCCNC(=O)COc2cccc([C@@H](CCc3ccc(OC)c(OC)c3)OC(=O)[C@@H]3CCCCN3C(=O)[C@@H](CC)c3ccccc3)c2)c1)c1ccccc1 [AP1889]
- pIC50 (mutant (F36V) FKBP; [8]): 5.00
- activation of transcription (wt; stable): % @ 1000 [1]: 0% (2×) and 1%
- Fas killing (wt, stable): % @ 1000 [2]: 0% @ 1000

Molecule: CCC(CC)C(=O)N1CCCC[C@H]1C(=O)O[C@H](CCc1ccc(OC)c(OC)c1)c1cccc(OCC(=O)NCCNC(=O)COc2cccc([C@@H](CCc3ccc(OC)c(OC)c3)OC(=O)[C@@H]3CCCCN3C(=O)C(CC)CC)c2)c1 [AP1891]
- activation of transcription (wt; stable): % @ 1000 [1]: 0% @ 1000
- Fas killing (wt, stable): % @ 1000 [2]: 0% @ 1000

Molecule: CCC(CC)NC(=O)N1CCCC[C@H]1C(=O)O[C@H](CCc1ccc(OC)c(OC)c1)c1cccc(OCC(=O)NCCNC(=O)COc2cccc([C@@H](CCc3ccc(OC)c(OC)c3)OC(=O)[C@@H]3CCCCN3C(=O)NC(CC)CC)c2)c1 [AP1966]
- pIC50 (mutant (F36V) FKBP; [8]): 7.24

Molecule: COc1ccc(CC[C@@H](OC(=O)[C@@H]2CCCCN2C(=O)C(c2ccccc2)c2ccccc2)c2cccc(OCC(=O)O)c2)cc1OC [AP14245]
- pIC50 (mutant (F36V) FKBP; [5]): 6.56
- pIC50 (F36L mutant FKBP; [6]): 6.16
- pIC50 (F36I mutant FKBP): 6.25
- pIC50 (F36M mutant FKBP): 6.76
- pIC50 (F36A mutant FKBP): 6.90

Molecule: CC[C@H](C(=O)N1CCCC[C@H]1C(=O)O[C@H](CCN1CCOCC1)c1cccc(OCC(=O)O)c1)c1cc(OC)c(OC)c(OC)c1 [AP14246, (1R)-1-(3-(carboxymethoxy)phenyl)-3-(morpholino)-1-propyl (2S)-1-((2S)-(3,4,5-trimethoxyphenyl)butyryl)-2-piperdine carboxylate]
- pIC50 (mutant (F36V) FKBP; [8]): 7.78

Molecule: AP1903
- pEC50 ([2]; mean values, read-out: Fas killing (wt, stable) EC50): 7.30 to 7.40
- pEC50 ([3]; Alamar Blue readout, read-out: concentration of dimerizer corresponding to 50% of control (cell viability, Alamar Blue)): > 9.00
- pEC50 ([3]; hGH readout, read-out: concentration of dimerizer corresponding to 50% of control (hGH levels)): > 9.00
